Like-named read-outs stand apart in the source and are kept apart here. Blank lines part the entries; values can stand above or below the molecule they belong to.
Key:
[1] = test system: endothelin-1 (ET-1) synthesis in porcine coronary artery endothelial cells (PCAECs); assay: Stimulated (FCS, angiotensin II, thrombin, TNFα) ET-1 release into the medium by PCAECs (ELISA); assay type: cell-based; parameters: induction of ET-1 secretion (percentage increase vs vehicle-treated controls): dose or concentration left out as unconfirmed; conditions: for induction of ET-1 secretion (percentage increase vs vehicle-treated controls): stimulus alone; for effect on FCS-induced ET-1 synthesis: 10 nmol/L; for reversal by ICI182780 of the compound's inhibitory effect on FCS-stimulated ET-1 secretion: ICI182780 50 μmol/L; for inhibition of FCS-induced ET-1 secretion / inhibition of TNFα-induced ET-1 secretion / inhibition of angiotensin II-induced ET-1 secretion / inhibition of thrombin-induced ET-1 secretion / inhibition at 0.001 µM: 1 nmol/L; for effectiveness in inhibiting basal and stimulated ET-1 secretion compared with estradiol: order of potency 2-methoxyestradiol>2-hydroxyestradiol>estradiol; for inhibition at 0.001 µM: Sus scrofa, Endothelial cell
Excerpt: (§1) Hearts from female pigs were obtained from a local slaughter house and placed in ice-cold oxygenated DMEM (Gibco, Rockville, Md. now Invitrogen, Carlsbad Calif., hereinafter “Gibco”) containing antibiotics (Gibco). The epicardial coronary arteries were isolated, and the fat and connective tissue were removed. Endothelial cells were isolated by collagenase/dispase digestion (Ohbayashi, A., et al., Biochem. Brophys. Res. Commun. 202:504 (1994), the disclosure of which is incorporated herein be reference (“Ohbayashi, et al.”)). The isolated cells were washed in DMEM/F12 medium (Gibco) supplemented with 10% fetal calf serum (“FCS”) (HyClone Laboratories, Logan, Utah) and endothelial cell growth supplement (Clonetics, Walkersville, Md.), and cells were grown to confluence under standard tissue culture conditions. The purity of the cultures, which was characterized by immunostaining with factor VIII antigen (Sigma, St. Louis, Mo.) and by assaying the preferential uptake of the fluorescent probe Dil-acetylated low density lipoprotein (Biomedical Technologies, Inc., Stoughton, Mass.), (Ohbayashi, et al.) was 98%. Cells were passaged by trypsinization, and cells in second and third passage were used for all experiments in this example.
(§2) To study the effects of estradiol and its metabolites on ET-1 synthesis in porcine coronary artery endothelial cells (“PCAECs”) (Gibco), confluent monolayers of PCAECs were washed twice with HBSS (Gibco) and treated with DMEM/F12 (gibco) supplemented with 0.4% bovine serum albumin (BSA) containing or lacking 0.001 to 1 μmol/L of estradiol, 2-hydroxyestradiol, or 2-methoxyestradiol (Steraloids, Newport, R.I.). […] The supernatants were collected for ET-1 analysis, and the samples were frozen at −70° C. until analyzed. ET-1 levels were measured with the BIOTRAK™ (Amersham Pharmacia Biotech Europe Gmbh, Dubendorf, Switzerland) high-sensitivity endothelin-1 human ELISA system.
Cells were also treated as above in the presence and absence of the estradiol receptor (“ER”) antagonist, ICI182780 (50 μmol/L; Tocris Cookson Ltd, Ballwin, Mo.). To analyze whether the inhibitory effects of estradiol were mediated by means of ER-β, the effects of genistein (0.001 to 10 μmol/L) (Sigma) were investigated. To evaluate whether the effects of estradiol were mimicked by various clinically used estrogens, the cells were treated as above, in the presence and absence of ICI182780, with 10 nmol/L of estradiol valerate, estradiol cypionate, estradiol benzoate, 17α-estradiol, estrone, estriol or estrone sulfate (all from Sigma), and the ET-1 synthesis in response to FCS (2.5%) was analyzed.

[2] = test system: endothelin-1 (ET-1) synthesis in porcine coronary artery endothelial cells (PCAECs); assay: Basal ET-1 release into the medium by PCAECs (ELISA); assay type: cell-based; conditions: for effect on basal ET secretion: 2 nmol/L, PCAECs incubated 4, 8, 12 and 24 hours
Excerpt: as §1, §2
To analyze the effects of estradiol and its metabolites on the basal synthesis of ET-1, cells were pretreated with or without the various above-listed agents and with and without ICI182780 for 24 hours and were fed fresh DMEM/F12 supplemented with 0.4%; BSA (Sigma) and the respective treatments. The supernatants were collected after 4, 8, 12, and 24 hours and the ET-1 levels were analyzed.

[3] = test system: mitogen-activated protein kinase (MAPK) activity in PCAECs; assay: FCS-induced MAPK activity in PCAECs; assay type: cell-based, porcine
Excerpt: Hearts from female pigs were obtained from a local slaughter house and placed in ice-cold oxygenated DMEM (Gibco, Rockville, Md. now Invitrogen, Carlsbad Calif., hereinafter “Gibco”) containing antibiotics (Gibco). The epicardial coronary arteries were isolated, and the fat and connective tissue were removed. Endothelial cells were isolated by collagenase/dispase digestion (Ohbayashi, A., et al., Biochem. Brophys. Res. Commun. 202:504 (1994), the disclosure of which is incorporated herein be reference (“Ohbayashi, et al.”)). […] The purity of the cultures, which was characterized by immunostaining with factor VIII antigen (Sigma, St. Louis, Mo.) and by assaying the preferential uptake of the fluorescent probe Dil-acetylated low density lipoprotein (Biomedical Technologies, Inc., Stoughton, Mass.), (Ohbayashi, et al.) was 98%. Cells were passaged by trypsinization, and cells in second and third passage were used for all experiments in this example. […] Some cells were pretreated for 1 hour with ICI182780 before treatment with the test agents. After stimulation, the cells were washed with ice-cold PBS and extraction buffer (50 mmol/L β-glycerophosphate, 1.5 mmol/L EGTA, 1 mmol/L dithiothreitol, 100 μmol/L Na3VO4, 10 μg/mL aprotinin, 5 μg/mL pepstatin, […] leupeptin, and 1 mmol/L benzamidine) (all from Sigma), scraped off the plates, and sonicated for 20 seconds in 0.5 mL of extraction buffer. The extracts were collected, the cytosolic fractions were separated by centrifuging the extracts at 100,000×g for 20 minutes at 4° C., and the supernatants were diluted to a concentration of 1 mg protein/mL and stored at -70° C. for mitogen-activated protein kinase (“MAPK”) activity assays. The MAPK activity in the cytosolic extracts was quantified as described by Dubey, R. K., et al., Arterioscler. Thromb. Vasc. Biol. 20:964 (2000), the disclosure of which is incorporated herein by reference.

[4] = angiotensin II 100 nmol/L, 4 hours
[5] = 1 nmol/L, pretreated 24 hours, FCS 2.5%

Molecule: TNFα
induction of ET-1 secretion (percentage increase vs vehicle-treated controls) ([1]; 4 hours): 120±8%

Molecule: C[C@]12CC[C@@H]3c4ccc(O)cc4CC[C@H]3[C@@H]1C[C@@H](O)[C@@H]2O [estriol]
effect on FCS-induced ET-1 synthesis ([1]; FCS 2.5%, 4 hours): unable to lower ET-1 secretion

Molecule: O=c1c(-c2ccc(O)cc2)coc2cc(O)cc(O)c12 [Genistein, genistein]
concentrations at which inhibitory effects on ET-1 secretion were observed ([1]; FCS 2.5%-stimulated, 4 hours, tested 0.001 to 10 μmol/L): ≥ 1 µmol/L
reversal by ICI182780 of the compound's inhibitory effect on FCS-stimulated ET-1 secretion ([1]; FCS 2.5%, 4 hours): not reversed

Molecule: angiotensin II [stimulatory agent for ET-1 secretion]
induction of ET-1 secretion (percentage increase vs vehicle-treated controls) ([1]; 4 hours): 116±7%

Molecule: C[C@]12CC[C@@H]3c4cc(O)c(O)cc4CC[C@H]3[C@@H]1CC[C@@H]2O [2-hydroxyestradiol, estra-1,3,5 (10)-triene-2,3,17-triol (17β)]
effect on basal ET secretion [2]: inhibited
inhibition of FCS-induced ET-1 secretion ([1]; FCS 2.5%, 4 hours): 31%
inhibition of TNFα-induced ET-1 secretion ([1]; TNFα 10 ng/mL, 4 hours): 35%
inhibition of angiotensin II-induced ET-1 secretion [1, 4]: 33%
inhibition of thrombin-induced ET-1 secretion ([1]; thrombin 4 U/mL, 4 hours): 40%
reversal by ICI182780 of the compound's inhibitory effect on FCS-stimulated ET-1 secretion ([1]; FCS 2.5%, 4 hours): not
effectiveness in inhibiting basal and stimulated ET-1 secretion compared with estradiol [1]: more effective
inhibition of FCS-induced MAPK activity [3, 5]: 34±4%
potency in inhibiting FCS-induced MAPK activity compared with estradiol ([3]; pretreated 24 hours, FCS 2.5%): more potent

Molecule: C[C@]12CC[C@@H]3c4ccc(OC(=O)c5ccccc5)cc4CC[C@H]3[C@@H]1CC[C@@H]2O [estradiol benzoate]
effect on FCS-induced ET-1 synthesis ([1]; FCS 2.5%, 4 hours): inhibited
reversal by ICI182780 of the compound's inhibitory effect on FCS-stimulated ET-1 secretion ([1]; FCS 2.5%, 4 hours): reversed

Molecule: CCCCC(=O)O[C@H]1CC[C@H]2[C@@H]3CCc4cc(O)ccc4[C@H]3CC[C@]12C [estradiol valerate]
effect on FCS-induced ET-1 synthesis ([1]; FCS 2.5%, 4 hours): inhibited
reversal by ICI182780 of the compound's inhibitory effect on FCS-stimulated ET-1 secretion ([1]; FCS 2.5%, 4 hours): reversed

Molecule: C[C@]12CC[C@@H]3c4ccc(O)cc4CC[C@H]3[C@@H]1CC[C@@H]2OC(=O)CCC1CCCC1 [estradiol cypionate]
effect on FCS-induced ET-1 synthesis ([1]; FCS 2.5%, 4 hours): inhibited
reversal by ICI182780 of the compound's inhibitory effect on FCS-stimulated ET-1 secretion ([1]; FCS 2.5%, 4 hours): reversed

Molecule: C[C@]12CC[C@@H]3c4ccc(O)cc4CC[C@H]3[C@@H]1CC[C@@H]2O [estradiol, 17β-estradiol]
effect on basal ET secretion [2]: inhibited
inhibition at 0.002 µM ([2]; Sus scrofa, Endothelial cell, 8 h, read-out: inhibition of basal synthesis of ET-1): 19 ± 2%
ET-1 secretion induced in response to FCS (percentage increase) in presence of compound ([1]; 1 nmol/L compound, FCS 2.5%, 4 hours, control 138±16%): 82±8%
ET-1 secretion induced in response to TNFα (percentage increase) in presence of compound ([1]; 1 nmol/L compound, TNFα 10 ng/mL, 4 hours, control 120±8%): 68±5%
ET-1 secretion induced in response to angiotensin II (percentage increase) in presence of compound ([1]; 1 nmol/L compound, angiotensin II 100 nmol/L, 4 hours, control 116±7%): 73±6%
ET-1 secretion induced in response to thrombin (percentage increase) in presence of compound ([1]; 1 nmol/L compound, thrombin 4 U/mL, 4 hours, control 98±6%): 53±4%
reversal by ICI182780 of the compound's inhibitory effect on FCS-stimulated ET-1 secretion ([1]; FCS 2.5%, 4 hours): completely blocked
inhibition at 0.001 µM ([1]; FCS 2.5%, 4 hours, read-out: inhibition of FCS-induced ET-1 secretion): 22%
inhibition at 0.001 µM ([1]; TNFα 10 ng/mL, 4 hours, read-out: inhibition of TNFα-induced ET-1 secretion): 26%
inhibition at 0.001 µM ([1]; angiotensin II 100 nmol/L, 4 hours, read-out: inhibition of angiotensin II-induced ET-1 secretion): 20%
inhibition at 0.001 µM ([1]; thrombin 4 U/mL, 4 hours, read-out: inhibition of thrombin-induced ET-1 secretion): 24%
reversal by ICI182780 of the compound's inhibitory effect on FCS-induced MAPK activity ([3]; ICI182780 50 μmol/L pretreatment, compound 10 nmol/L): completely reversed
inhibition at 0.001 µM ([3]; Sus scrofa, 1 nmol/L, pretreated 24 hours, FCS 2.5%): 19 ± 2.6%

Molecule: estrone sulfate
effect on FCS-induced ET-1 synthesis ([1]; FCS 2.5%, 4 hours): unable to lower ET-1 secretion

Molecule: C[C@]12CC[C@@H]3c4ccc(O)cc4CC[C@H]3[C@@H]1CC[C@H]2O [17α-estradiol]
effect on FCS-induced ET-1 synthesis ([1]; FCS 2.5%, 4 hours): unable to lower ET-1 secretion

inhibition of FCS-induced MAPK activity [3, 5]: 46±4.7%
potency in inhibiting FCS-induced MAPK activity compared with estradiol ([3]; pretreated 24 hours, FCS 2.5%): more potent
Molecule: COc1cc2c(cc1O)CC[C@@H]1[C@@H]2CC[C@]2(C)[C@@H](O)CC[C@@H]12 [2-methoxyestradiol, estra-1,3,5 (10)-triene-2-methoxy-3,17-diol (17β)]
effect on basal ET secretion [2]: inhibited
inhibition of FCS-induced ET-1 secretion ([1]; FCS 2.5%, 4 hours): 44%
inhibition of TNFα-induced ET-1 secretion ([1]; TNFα 10 ng/mL, 4 hours): 56%
inhibition of angiotensin II-induced ET-1 secretion [1, 4]: 39%
inhibition of thrombin-induced ET-1 secretion ([1]; thrombin 4 U/mL, 4 hours): 46%
reversal by ICI182780 of the compound's inhibitory effect on FCS-stimulated ET-1 secretion ([1]; FCS 2.5%, 4 hours): not
effectiveness in inhibiting basal and stimulated ET-1 secretion compared with estradiol [1]: more effective

Molecule: C[C@]12CC[C@@H]3c4ccc(O)cc4C[C@@H](CCCCCCCCC[S+]([O-])CCCC(F)(F)C(F)(F)F)[C@H]3[C@@H]1CC[C@@H]2O (some centres unmarked) [ICI182780]
effect of compound alone on basal or FCS-stimulated ET-1 synthesis ([1]; 50 μmol/L): did not influence

Molecule: thrombin
induction of ET-1 secretion (percentage increase vs vehicle-treated controls) ([1]; 4 hours): 98±5%

MAPK activity ([3]; growth-arrested cells, FCS 2.5% for 10 minutes, unstimulated 0.187, PD98059 at 10 μmol/L): 0.7 μmol/min/mg protein
Molecule: COc1cccc(-c2cc(=O)c3ccccc3o2)c1N [PD98059]

Reference: patent US20080279936A1, “Estradiol metabolites for reduction of endothelin production” (The University of Pittsburgh, priority 2001, published 2008)
